Columns and labels:
panel of 442 kinases [1] = molecular target: T1, panel of 442 kinases (Homo sapiens, UniProt Q6ZN16); format: binding; parameters: KINOMEscan: ABL1(F317L)-phosphorylated / KINOMEscan: ABL1(H396P)-nonphosphorylated / KINOMEscan: ABL1(H396P)-phosphorylated / KINOMEscan: ABL1(M351T)-phosphorylated / KINOMEscan: ABL1(T315I)-phosphorylated / KINOMEscan: ABL1-nonphosphorylated / KINOMEscan: ABL1-phosphorylated / KINOMEscan: ACVR2A / KINOMEscan: ACVR2B / KINOMEscan: ADCK3 / KINOMEscan: ADCK4 / KINOMEscan: AKT1 / KINOMEscan: AKT3 / KINOMEscan: ALK / KINOMEscan: ARK5 / KINOMEscan: AURKA / KINOMEscan: AURKC / KINOMEscan: BIKE / KINOMEscan: BMPR1A / KINOMEscan: BMPR1B / KINOMEscan: BMX / KINOMEscan: BRK / KINOMEscan: BRSK1 / KINOMEscan: BRSK2 / KINOMEscan: CAMK1 / KINOMEscan: CAMK1D / KINOMEscan: CAMK1G / KINOMEscan: CAMK2A / KINOMEscan: CAMK2B / KINOMEscan: AAK1 / KINOMEscan: CAMK2D / KINOMEscan: CAMK2G / KINOMEscan: ABL1(F317I)-nonphosphorylated / KINOMEscan: ABL1(F317I)-phosphorylated / KINOMEscan: ABL1(F317L)-nonphosphorylated: unit: % Ctrl; details: Compound Concentration 10 µM
T1 construct: purchased KINOMEscan
T1 sequence (Q6ZN16 1-1313): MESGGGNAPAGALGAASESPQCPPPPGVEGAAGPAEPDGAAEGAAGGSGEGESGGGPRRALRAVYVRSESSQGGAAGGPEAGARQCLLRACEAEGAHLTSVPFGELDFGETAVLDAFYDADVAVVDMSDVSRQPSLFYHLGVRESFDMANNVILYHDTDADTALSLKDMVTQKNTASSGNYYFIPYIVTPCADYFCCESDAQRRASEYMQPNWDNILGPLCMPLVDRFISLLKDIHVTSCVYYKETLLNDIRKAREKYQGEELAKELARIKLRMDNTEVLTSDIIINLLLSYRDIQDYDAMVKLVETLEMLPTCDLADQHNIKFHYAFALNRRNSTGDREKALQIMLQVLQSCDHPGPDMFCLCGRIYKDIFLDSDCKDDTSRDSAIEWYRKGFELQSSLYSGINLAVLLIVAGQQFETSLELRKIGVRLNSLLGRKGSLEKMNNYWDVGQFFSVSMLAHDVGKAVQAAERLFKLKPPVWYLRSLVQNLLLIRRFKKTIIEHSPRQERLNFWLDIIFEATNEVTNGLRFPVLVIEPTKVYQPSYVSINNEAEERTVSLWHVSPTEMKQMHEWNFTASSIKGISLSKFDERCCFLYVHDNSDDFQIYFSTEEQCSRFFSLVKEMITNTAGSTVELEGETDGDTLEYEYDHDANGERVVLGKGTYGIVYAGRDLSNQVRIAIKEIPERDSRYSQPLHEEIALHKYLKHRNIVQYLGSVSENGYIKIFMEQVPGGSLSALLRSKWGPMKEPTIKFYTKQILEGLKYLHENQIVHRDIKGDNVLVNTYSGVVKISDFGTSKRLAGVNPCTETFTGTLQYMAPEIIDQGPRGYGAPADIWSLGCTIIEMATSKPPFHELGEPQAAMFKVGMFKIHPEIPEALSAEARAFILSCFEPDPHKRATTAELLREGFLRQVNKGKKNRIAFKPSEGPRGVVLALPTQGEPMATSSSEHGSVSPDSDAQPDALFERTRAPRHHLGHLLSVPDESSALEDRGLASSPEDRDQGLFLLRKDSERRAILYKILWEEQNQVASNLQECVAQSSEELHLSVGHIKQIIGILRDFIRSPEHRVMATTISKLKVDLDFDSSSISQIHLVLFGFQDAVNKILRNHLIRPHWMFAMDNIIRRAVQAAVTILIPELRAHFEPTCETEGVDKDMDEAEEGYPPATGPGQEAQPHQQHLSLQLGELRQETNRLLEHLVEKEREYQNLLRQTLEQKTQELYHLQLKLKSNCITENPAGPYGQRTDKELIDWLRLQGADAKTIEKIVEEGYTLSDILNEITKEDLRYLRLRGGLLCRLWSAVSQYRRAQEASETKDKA
From the text: (§1) We assessed the selectivity of members of this scaffold using the KINOMEscan methodology across a near comprehensive panel of 442 kinases [[18,27]].

panel of 442 kinases [2] = molecular target: T2, panel of 442 kinases (Homo sapiens, UniProt Q9Y243); format: binding; parameters: KINOMEscan: ABL1(F317L)-phosphorylated / KINOMEscan: ABL1(H396P)-nonphosphorylated / KINOMEscan: ABL1(H396P)-phosphorylated / KINOMEscan: ABL1(M351T)-phosphorylated / KINOMEscan: ABL1(T315I)-phosphorylated / KINOMEscan: ABL1-nonphosphorylated / KINOMEscan: ABL1-phosphorylated / KINOMEscan: ACVR2A / KINOMEscan: ACVR2B / KINOMEscan: ADCK3 / KINOMEscan: ADCK4 / KINOMEscan: AKT1 / KINOMEscan: AKT3 / KINOMEscan: ALK / KINOMEscan: ARK5 / KINOMEscan: AURKA / KINOMEscan: AURKC / KINOMEscan: BIKE / KINOMEscan: BMPR1A / KINOMEscan: BMPR1B / KINOMEscan: BMX / KINOMEscan: BRK / KINOMEscan: BRSK1 / KINOMEscan: BRSK2 / KINOMEscan: CAMK1 / KINOMEscan: CAMK1D / KINOMEscan: CAMK1G / KINOMEscan: CAMK2A / KINOMEscan: CAMK2B / KINOMEscan: AAK1 / KINOMEscan: CAMK2D / KINOMEscan: CAMK2G / KINOMEscan: ABL1(F317I)-nonphosphorylated / KINOMEscan: ABL1(F317I)-phosphorylated / KINOMEscan: ABL1(F317L)-nonphosphorylated: unit: % Ctrl; details: Compound Concentration 10 µM
T2 construct: purchased KINOMEscan
T2 sequence (Q9Y243 whole entry): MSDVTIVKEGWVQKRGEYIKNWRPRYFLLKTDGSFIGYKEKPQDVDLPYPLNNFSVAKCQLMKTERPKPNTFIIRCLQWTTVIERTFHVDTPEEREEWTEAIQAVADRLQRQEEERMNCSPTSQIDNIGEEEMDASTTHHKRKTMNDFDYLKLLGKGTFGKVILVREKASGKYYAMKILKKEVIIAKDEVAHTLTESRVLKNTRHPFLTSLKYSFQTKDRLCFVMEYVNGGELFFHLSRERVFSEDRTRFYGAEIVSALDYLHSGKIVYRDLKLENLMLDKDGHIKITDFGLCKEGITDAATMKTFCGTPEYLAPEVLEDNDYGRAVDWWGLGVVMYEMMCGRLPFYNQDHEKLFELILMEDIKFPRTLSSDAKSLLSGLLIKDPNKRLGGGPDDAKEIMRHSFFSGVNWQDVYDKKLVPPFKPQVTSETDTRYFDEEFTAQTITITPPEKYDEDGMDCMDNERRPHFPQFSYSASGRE
From the text: as §1

SMILES	KINOMEscan: MAP3K15 (panel of 442 kinases [1])	KINOMEscan: AKT3 (panel of 442 kinases [2])
COc1cc(C(=O)N2CCC(N3CCN(C)CC3)CC2)ccc1Nc1ncc2c(n1)N(C)c1ccccc1C(=O)N2C [15 (LRRK2-IN-1)]	69	100
COc1cc(C(=O)N2CCC(N3CCN(C)CC3)CC2)ccc1Nc1ncc2c(n1)N1CCc3cccc(c31)C(=O)N2C [Compound 24]	77	–
COc1cc(C(=O)N2CCC(N3CCN(C)CC3)CC2)ccc1Nc1ncc2c(n1)N(C1CCCC1)c1ccccc1C(=O)N2C [Compound 25, 11-cyclopentyl-2-((2-methoxy-4-(4-(4-methylpiperazin-1-yl)piperidine-1-carbonyl)phenyl)amino)-5-methyl-5H-benzo[e]pyrimido[5,4-b][1,4]diazepin-6(11H)-one]	88	100
CCOc1cc(C(=O)N2CCC(N3CCN(C)CC3)CC2)ccc1Nc1ncc2c(n1)N(C1CCCC1)c1ccccc1C(=O)N2C [Compound 26]	95	84
